By efflux ratio is commonly meant a quotient of directional permeabilities that is used to spot active efflux. Broadly, the pIC50 is the IC50 on a negative log10 scale, so that one unit is a factor of ten. Broadly, the pEC50 is the negative decadic logarithm of the EC50, by convention in mol/L.

Results on 5 compounds are retold here after USRE47493E1, “Substituted bicyclic dihydropyrimidinones and their use as inhibitors of neutrophil elastase activity” (Boehringer Ingelheim International GmbH, priority 2014, dated 2019).

The structures appear in SMILES notation. pEC50, pIC50: −log10 of the molar value. Where two headings read alike, the source gives them in different places. Some results are limits rather than exact numbers.

Series [1] can be described thus: Assay for Determination of Drug Transport Across Human CACO-2 Cells. In kind it is in vitro ADME. The conditions noted are these: human; for efflux ratio at 2 h, 10 nM: pH 7.2, Caco-2, PEBA/PEAB; for Papp A→B at 10 nM: Caco-2, apical-to-basal, read-out: PEAB; for Papp A→B at 10 nM / Papp B→A at 10 nM: pH 7.2, 37° C.; for Papp B→A at 10 nM: Caco-2, basal-to-apical, read-out: PEBA. An excerpt:
Assay for Determination of Drug Transport Across Human CACO-2 Cells
The assay provides information on the potential of a compound to pass the cell membrane, on the extent of oral absorption as well as on whether the compound is actively transported by uptake and/or efflux transporters. For the measurement of permeability across polarized, confluent human cancer colon carcinoma cells 2 (Caco-2) cell monolayers grown on permeable filter supports are used as the in vitro absorption model. Apparent permeability coefficients (PE) of the compounds across the Caco-2 monolayers are measured (pH 7.2, 37° C.) in apical-to-basal (AB) (absorptive) and basal-to-apical (BA) (secretory) transport direction. AB permeability (PEAB) represents drug absorption from the intestine into the blood and BA permeability (PEBA) drug secretion from the blood back into the intestine via both passive permeability as well as active transport mechanisms mediated by efflux and uptake transporters that are expressed on the Caco-2 cells. The compounds are assigned to permeability/absorption classes by comparison of the AB permeabilities with the AB permeabilities of reference compounds with known in vitro permeability and oral absorption in the human. Identical or similar permeabilities in both transport directions indicate passive permeation, vectorial permeability points to additional active transport mechanisms. […] Active transport is concentration-dependently saturable.
Caco-2 cells (1−2*10^5 cells/cm^2 area) are seeded on filter inserts (Costar transwell polycarbonate or PET filters, […] pore size) and cultured (DMEM) for 10 to 25 days. Compounds are dissolved in appropriate solvent (like DMSO, 1-20 mM stock solutions). Stock solutions are diluted with HTP-4 buffer (128.13 mM NaCl, 5.36 mM KCl, 1 mM MgSO4, 1.8 mM CaCl2, 4.17 mM NaHCO3, 1.19 mM Na2HPO4×7H2O, 0.41 mM NaH2PO4×H2O, 15 mM HEPES, 20 mM glucose, pH 7.2) to prepare the transport solutions (typically […] compound, final DMSO <=0.5%). The transport solution (TL) is applied to the apical or basolateral donor side for measuring A-B or B-A permeability (3 filter replicates), respectively. The receiver side contains HTP-4 buffer supplemented with 2% BSA. Samples are collected at the start and end of experiment from the donor and at various time intervals for up to 2 hours also from the receiver side for concentration measurement by LC-MS/MS or scintillation counting. Sampled receiver volumes are is replaced with fresh receiver solution.
The apparent permeability coefficients (PEAB and PEBA) and efflux ratios (PEBA/PEAB) of selected compounds in the Caco-2 drug transport assay described above are listed in Table 17.
For orientation: Caco-2 cells form a polarised layer with tight junctions and transporters.

For series [2], the target named is Human neutrophil elastase (Homo sapiens (Human), UniProt P08246). Description: Human Neutrophil Elastase Assay. It counts as biochemical. In a few lines:
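Readout: AMC fluorescence (ex 380, em 460 nm) after 60 min room-temperature reaction with 250 nM MeOSuc-AAPV-AMC, following 15 min compound–enzyme preincubation. Buffer: Tris/NaCl pH 7.5, 0.01% BSA.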

In series [3] the target is neutrophil elastase in human plasma (Homo sapiens (Human), UniProt P08246). Description: Assay for the Determination of Neutrophil Elastase Inhibitory Activity in Human Plasma. It counts as biochemical. Conditions: neutrophil elastase enriched human plasma (zymosan-stimulated blood). The procedure: Assay for the Determination of Neutrophil Elastase Inhibitory Activity in Human Plasma
Chain of neutrophil elastase in human plasma (P08246 30-267): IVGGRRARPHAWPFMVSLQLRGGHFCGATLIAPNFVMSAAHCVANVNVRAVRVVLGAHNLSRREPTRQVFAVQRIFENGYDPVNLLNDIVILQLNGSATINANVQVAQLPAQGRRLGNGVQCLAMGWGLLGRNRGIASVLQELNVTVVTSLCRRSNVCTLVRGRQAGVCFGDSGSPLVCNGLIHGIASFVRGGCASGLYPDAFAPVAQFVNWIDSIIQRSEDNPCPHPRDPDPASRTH
Citrated blood from human healthy donors is mixed with zymosan suspension and incubated at room temperature. This leads to the stimulation of neutrophils and the release of neutrophil elastase into the plasma. The stimulated blood is centrifuged to generate the neutrophil elastase enriched plasma.
Preparation of Zymosan Working Solution:
• single 45 ml blood sample is taken into a 50 ml tube containing citrate (3.13%, 5 mL) and the tube is gently inverted 4 times. • Immediately after blood sampling, zymosan working solution (5 mL) is added. • After the addition of zymosan working solution, the tubes are capped, mixed gently and incubated at 22° C. for 15 min on a shaker at 20 rpm. • Make 10 ml aliquots after the incubation time. • Centrifuge the 15 ml tubes at 800 g for […] at 4° C. in a Jouan centrifuge. • Harvest the plasma and make 1-5 ml aliquots. • Store the plasma at −80° C.
Various concentrations of the neutrophil elastase inhibitor are incubated with plasma. Subsequently, the enzyme activity is measured using the fluorogenic substrate MeOSuc-Ala-Ala-Pro-Val-AMC (Bachem Cat. No. 1-1270, substrate concentration: 250 μM, pH 7.5, 25 mM TRIS buffer, 250 mM NaCl) in analogous fashion as described for the human neutrophil assay. A dose response curve is generated to calculate the EC50 of the inhibitor. The analysis of the data is performed by the calculation of the percentage of fluorescence in the presence of the test compound compared to the fluorescence of the vehicle control after subtracting the background fluorescence: An inhibitor of the neutrophil elastase enzyme will give values between 100% control (no inhibition) and 0% control (complete inhibition). The human plasma shift of selected compounds can be calculated using the following equation: Human plasma shift=(EC50 in human plasma assay)/(IC50 in human neutrophil elastase assay) The EC50 values of selected compounds in the human plasma assay described above are listed in Table 14.

Where [4] appears, read: human neutrophil elastase, substrate MeOSuc-Ala-Ala-Pro-Val-AMC, pH 7.5, read-out: IC50.

Chain of Human neutrophil elastase (P08246 30-267): as above

Regarding `CS(=O)(=O)c1cc(C#N)ccc1[C@H]1NC(=O)N(c2cccc(C(F)(F)F)c2)C2=C1C(=O)CCC2` (single isomer, unassigned) [Example 18A], in series [1], the efflux ratio at 2 h, 10 nM is 4.2; the Papp A→B at 10 nM worked out at 20.9 ×10⁻⁶ cm/s; the Papp B→A at 10 nM is 88.2 ×10⁻⁶ cm/s. For the same compound, the pIC50 in series [2] (setting [4]) is 8.32. For the same compound, the pIC50 in series [2] (read-out: IC50, inhibition of neutrophil elastase) was 8.32. The negative logarithm of the EC50 (pEC50) in series [3] was 8.52.

Regarding `CS(=O)(=O)c1cc(C#N)ccc1[C@H]1NC(=O)N(c2cccc(C(F)F)c2)C2=C1C(=O)CCC2` (single isomer, unassigned) [Example 19A], in series [1], the efflux ratio at 2 h, 10 nM came to 6.7; the Papp A→B at 10 nM came to 11.4 ×10⁻⁶ cm/s; the Papp B→A at 10 nM worked out at 76.7 ×10⁻⁶ cm/s. Besides, in series [2] (setting [4]), the pIC50 was 8.14. Besides, the pEC50 in series [3] is 8.70.

In the case of `CNC(=O)N1C(=O)N(c2cccc(C(F)(F)F)c2)C2=C(C(=O)CCC2)[C@H]1c1ccc(C#N)cc1S(C)(=O)=O` (single isomer, unassigned) [Example 47A], in series [1], the efflux ratio at 2 h, 10 nM was 5.4; the Papp A→B at 10 nM is 9.86 ×10⁻⁶ cm/s; the Papp B→A at 10 nM was 53.5 ×10⁻⁶ cm/s. Also, the pIC50 in series [2] (setting [4]) was over 9.00. In series [3], this compound had a negative logarithm of the EC50 (pEC50) of 9.00.

Take `CCS(=O)(=O)c1cc(C#N)ccc1[C@H]1NC(=O)N(c2cccc(C(F)(F)F)c2)C2=C1C(=O)CCC2` (single isomer, unassigned) [Example 54A]: in series [1], the efflux ratio at 2 h, 10 nM was determined as 2.4; the Papp A→B at 10 nM came out at 26 ×10⁻⁶ cm/s; the Papp B→A at 10 nM turned out to be 61.7 ×10⁻⁶ cm/s. The pIC50 in series [2] (setting [4]) was 8.49. Also, the pEC50 in series [3] is 9.00.

Take `CC(C)(O)CNC(=O)N1C(=O)N(c2cccc(C(F)(F)F)c2)C2=C(C(=O)CCC2)C1c1ccc(C#N)cc1` (centres unmarked) [Example 70.9]: in series [1], the efflux ratio at 2 h, 10 nM is 3.2; the Papp A→B at 10 nM is 30.3 ×10⁻⁶ cm/s; the Papp B→A at 10 nM was determined as 96.1 ×10⁻⁶ cm/s. Also, the pIC50 in series [2] (setting [4]) was 8.77. Further, the pEC50 in series [3] was 7.82.
